Source: US11491168B2, “Combination of Bcl-2/Bcl-xL inhibitors and chemotherapeutic agent and use thereof” (ASCENTAGE PHARMA (SUZHOU) CO., LTD., priority 2019, dated 2022)
Where two headings read alike, the source gives them in different places.

Tests used:
[1] = system: SCLC patient-derived xenograft LU5250; test: LU5250 SCLC patient-derived xenograft; type: in vivo, female NOD.SCID mice
Procedure: (§1) The therapeutic efficacy of compound 15 alone and its multiple combinations in the treatment of subcutaneous HuPrime® Lung cancer xenograft model LU5250 and LU5188 in female NOD.SCID mice was evaluated.
(§2) Either LU5250 or LU5188 tumor mass with rough size of 3×3×3 mm^3 were inoculated into female NOD.SCID mice and the day of randomization was denoted as day 1. The treatment was initiated on day 1 when tumors approximated a mean volume 136 mm^3 of LU5250 and 155 mm^3 of LU5188, respectively. There were 6 groups enrolled in each model eventually. See Table 3 for the mode of administration and doses. Both models were taken down on day 21.

[2] = system: MDA-MB-231 triple-negative breast cancer tumor cell line; test: WST (CCK-8) anti-proliferation assay
Procedure: Cell plating: Anti-proliferation effects were detected by a CCK-8 (Cell Counting Kit-8) assay based on water soluble tetrazolium salt (WST).
The cells were seeded in 96-well plates. 95 μL complete medium was added to each negative control group, and 95 μL cell suspension in complete medium was added at a density of 5-10×10^4 cells/well to each well to be tested.
The MGC80-3 and SW620 used in the examples were purchased from the Cell Bank of the Shanghai Institute of Biochemistry and Cell Biology, Chinese Academy of Sciences. MDA-MB-231, PC-3, and NCI-H146 were available from the American Type Culture Collection (ATCC) under accession Nos. HTB-26, CRL-1435, and HTB-173, respectively. It should be noted that the cells used in the present disclosure are all available from ATCC. […]
Reading: At the end of the culture, for adherent cells, the old solution in the test wells was removed and 100 μl/well CCK-8 test solution (the corresponding medium containing 10% CCK-8, 5% FBS) was added. […]
The OD value was measured using a microplate reader (SpectraMax Plus 384, Molecular Devices, LLC., US) A450 nm. […] The percentage of cell viability was calculated by the following formula: (O.D. test well−O.D. blank control well)/(O.D. cell control well−O.D. blank control well)×100%.
The IC50 was calculated using the nonlinear regression data analysis method of Graphpad Prism 6.0 software.

[3] = system: NCI-N87 xenograft; test: NCI-N87 xenograft model, Compound 15 with 5-FU
[4] = system: metastatic solid tumors; test: U.S. clinical trial as of Dec. 21, 2019; type: in vivo
Procedure: Three clinical trials (Phase I or Phase I/II) with similar study designs were conducted in the United States, Australia, and China. During the dose escalation phase, the patient received Compound 15 (10-400 mg) twice weekly or weekly intravenously for a 28-day treatment cycle. Tumor response assessment was performed every 2 cycles according to RECIST 1.1 criteria. The purpose of the study was to assess safety, maximum tolerated dose (MTD)/recommended phase II dose (RP2D), pharmacokinetics (PK), pharmacodynamics (PD), and the preliminary efficacy of Compound 15 as a single agent in metastatic solid tumors.
As of Dec. 21, 2019, 42 US patients with metastatic solid tumors (Table A) received Compound 15 treatment ranging from 10-400 mg in at least one 28-day cycle. The patients were treated in 2 cohorts. 31 patients in cohort 1 received Compound 15 twice a week (BIW) by intravenous (IV) infusion at a dose of 10 mg, 20 mg, 40 mg, 80 mg, 160 mg, 240 mg, 320 mg, or 400 mg; 11 patients in cohort 2 received Compound 15 once a week (QW) by IV infusion at a dose of 240 mg or 320 mg.

[5] = molecular target: Bcl-xl (Homo sapiens, UniProt Q07817); test: binding to Bcl-xl protein
Chain of Bcl-xl (Q07817 whole entry): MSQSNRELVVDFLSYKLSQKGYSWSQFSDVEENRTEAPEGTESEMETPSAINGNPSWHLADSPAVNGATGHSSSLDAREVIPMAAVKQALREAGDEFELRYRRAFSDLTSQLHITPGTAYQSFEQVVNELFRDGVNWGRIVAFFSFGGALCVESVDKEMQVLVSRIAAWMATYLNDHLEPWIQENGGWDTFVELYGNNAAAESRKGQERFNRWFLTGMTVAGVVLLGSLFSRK

[6] = system: human PC3 cell line prostate cancer xenograft; test: PC3 prostate cancer xenograft model; conditions: Compound 15 100 mg/kg; docetaxel 8 mg/kg
Procedure: (§5) Subcutaneous xenograft tumor model of human cancer was established in immunodeficient mouse by cell inoculation: tumor cells in logarithmic growth phase were collected, counted, and then re-suspended in 1×PBS. The concentration of the cell suspension was adjusted to 2.5-5×10^7/mL. Tumor cells were inoculated subcutaneously in the right back of the immunized normal mouse with a 1 mL syringe (4 gauge needle) at 5-10×10^6/0.2 mL/mouse.
(§6) Animal weight and tumor size were measured twice a week during the study. The animals were checked daily for morbility and etc. […] Mortality and clinical signs observed during the study were recorded in the raw data. […]
(§7) Tumor volume (TV) was calculated as: TV=a×b^2/2 wherein a and b represent the measured length and width of tumor, respectively.
(§8) Relative tumor volume (RTV) was calculated as: RTV=Vt/V1 wherein V1 was the tumor volume on the first day of dosing, and Vt was the tumor volume measured on day t after dosing.
(§9) Relative tumor proliferation rate T/C (%), as an indication of anti-tumor effectiveness, was calculated as: Relative tumor proliferation rate T/C (%)=(TRTV/CRTV)×100%, wherein TRTV was RTV in treatment group, and CRTV was RTV in vehicle control group. […]

[7] = system: SCLC patient-derived xenograft LU5188; test: LU5188 SCLC patient-derived xenograft; type: in vivo, female NOD.SCID mice
Procedure: as §1, §2

[8] = molecular target: Bcl-2 (Homo sapiens, UniProt P10415); test: binding to Bcl-2 protein
Chain of Bcl-2 (P10415 whole entry): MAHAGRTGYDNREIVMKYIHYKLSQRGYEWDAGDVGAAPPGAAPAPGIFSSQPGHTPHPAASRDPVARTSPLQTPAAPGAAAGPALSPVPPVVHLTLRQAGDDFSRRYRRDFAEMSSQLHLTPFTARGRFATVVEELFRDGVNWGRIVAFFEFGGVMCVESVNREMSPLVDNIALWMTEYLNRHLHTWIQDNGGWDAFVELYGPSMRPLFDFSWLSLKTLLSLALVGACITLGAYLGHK

[9] = system: human SW620 cell line colon cancer xenograft; test: SW620 colon cancer xenograft model; type: in vivo, mice; conditions: single agents: Compound 15 100 mg/kg; irinotecan 50 mg/kg
Procedure: as §5, §6, §7, §8, §9

[10] = system: platelet; test: platelet toxicity; conditions: versus first-generation BCL-2 inhibitors
[11] = system: subcutaneous NCI-H146 lung cancer xenograft; test: NCI-H146 lung cancer xenograft model (Example 8); type: in vivo, female SCID mice; conditions: for mRECIST_best: best response during the treatment, PR partial response, CR complete response, SD stable disease, PD progressive disease; for mRECIST_last: response on the last day of treatment, PR, CR, SD, PD
Procedure: The therapeutic efficacy of compound 15 alone and in multiple combinations in the treatment of subcutaneous NCI-H146 lung cancer xenograft model was evaluated.
1×10^7 NCI-H146 tumor cells were pre-treated in 0.1 mL of phosphate buffer and Matrigel (7:3) and inoculated into female SCID mice. The day of randomization was denoted as day 1. The treatment was initiated on day 1. The study was conducted in 8 groups of mice. See Table 6 for the mode of administration and doses. The entire study was taken down on day 21. The study was conducted in 40 mice. All the animals were randomized into 8 experimental groups.

[12] = activity compared with first generation BCL-2 inhibitor
[13] = molecular target: Mcl-1 (Homo sapiens, UniProt Q07820); test: binding to Mcl-1
Chain of Mcl-1 (Q07820 whole entry): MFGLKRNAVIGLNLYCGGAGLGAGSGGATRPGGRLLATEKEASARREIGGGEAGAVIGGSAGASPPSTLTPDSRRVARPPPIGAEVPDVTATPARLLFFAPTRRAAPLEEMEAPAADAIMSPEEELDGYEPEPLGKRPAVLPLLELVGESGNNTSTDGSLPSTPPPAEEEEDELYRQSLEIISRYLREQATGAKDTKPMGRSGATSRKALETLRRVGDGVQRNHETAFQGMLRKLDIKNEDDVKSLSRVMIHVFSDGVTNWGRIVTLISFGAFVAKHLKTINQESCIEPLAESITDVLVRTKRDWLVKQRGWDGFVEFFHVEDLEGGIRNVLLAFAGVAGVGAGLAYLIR

[14] = molecular target: Bcl-w (Homo sapiens, UniProt Q92843); test: binding to Bcl-w protein
Chain of Bcl-w (Q92843 whole entry): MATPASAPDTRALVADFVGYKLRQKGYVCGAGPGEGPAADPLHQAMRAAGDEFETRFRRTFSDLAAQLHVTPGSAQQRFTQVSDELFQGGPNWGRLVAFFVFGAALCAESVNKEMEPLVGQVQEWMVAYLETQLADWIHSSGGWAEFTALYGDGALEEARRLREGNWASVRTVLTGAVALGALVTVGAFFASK

[15] = system: metastatic solid tumors; test: Phase I or I/II clinical trials, pooled results as of Jan. 31, 2019; type: in vivo
Procedure: Three clinical trials (Phase I or Phase I/II) with similar study designs were conducted in the United States, Australia, and China. […] Tumor response assessment was performed every 2 cycles according to RECIST 1.1 criteria.

[16] = system: NCI-N87 xenograft; test: NCI-N87 xenograft model, Compound 15 single agent; type: in vivo, nude mice; conditions: for mouse tumor volume upon the end point: tail vein injection, 10 consecutive days
Procedure: The NCI-N87 tumor-bearing mice were treated with different doses of Compound 15 by tail vein injection for 10 consecutive days.
The inventors extracted proteins from the removed tumor tissues and prepared tissue sections.

[17] = system: small cell lung cancer cell line NCI-H146, NCI-H69 and NCI-H446; test: Cell Titer-Glo luminescent cell viability assay (CTG); type: cell-based, human; conditions: small cell lung cancer cells
Procedure: Cells in the logarithmic growth phase were collected for Cell Titer-Glo® (CTG) luminescence cell viability assay. 10 μL of the diluted drug solution was added into a 96-well plate while 10 μL of the medium was added into the 96-well control plate. For the study of the combination, 5 μL of the indicated test reagent was added to each well. At the end of the study, the 96-well plates were equilibrated to room temperature, and then 30 μL of CTG reagent (protected from light) was added to each well to induce cell lysis. The luminescent signal was then detected using a Biotek Synergy H1 plate reader. Percent cell viability (%) was calculated using the mean luminescence value (LN) of the replicate wells (blank) of the control group, according to the following formula: percent cell viability (%)=(fluorescence signal value of experimental cells−fluorescence signal value of negative control cell)/(fluorescence signal value of control cells−fluorescence signal value of negative control cells)×100%.
Cell viability curve was plotted using Graphpad Prism 6.0 software (Golden software, Golden, Colo., USA). For the study of the drug combination, the Combination Index (CI) was calculated using CalcuSyn software (BIOSOFT, UK) to further analyze the combined effects of the indicated drugs (Chou, Cancer Research 70, 440-446). […]

[18] = system: AGS cells; test: AnnexinV/PI staining apoptosis, AGS; type: cell-based; conditions: 48 hours, Compound 31 0.3 μM, 5-FU 3 μM
Procedure: (§3) The inventors chose to combine Compound 31 with one of the most common chemotherapeutic drugs in clinic, 5-fluorouracil (5-FU). In order to investigate the effect and the potential mechanisms of Compound 31 and 5-FU on the growth of gastric cancer cells, the inventors used the AnnexinV/PI staining to detect the apoptosis of two gastric cancer cells, AGS and NCI-N87, 48 hours after the treatment with Compound 31 (0.3 μM), 5-FU (3 μM), and the combination at specified concentrations. […] In NCI-N87 cells, the combination group also achieved a higher apoptosis rate than the mono therapy groups, Compound 31 or 5-FU as a single agent leading to apoptosis rates of 24% or 18% while the combination group reaching an apoptosis rate of 46% (FIG. 29(a)).

[19] = system: NCI-N87 cells; test: AnnexinV/PI staining apoptosis, NCI-N87; type: cell-based; conditions: NCI-N87, 48 hours; Compound 31 0.3 μM, 5-FU 3 μM
Procedure: as §3

[20] = system: AGS and NCI-N87 gastric cancer cell lines; test: cell cycle assay; type: cell-based
[21] = system: AGS gastric cancer cell line; test: CCK-8 cell viability, AGS; type: cell-based; conditions: within 72 hours
Description: (§4) Thus, the sensitivity of gastric cancer cells to Compound 31 is closely related to the expression of Bcl-2, Bcl-xL and Bax.

[22] = system: NCI-N87 gastric cancer cell line; test: CCK-8 cell viability, NCI-N87; type: cell-based; conditions: Homo sapiens; NCI-N87, within 72 hours
Description: as §4

[23] = system: NCI-N87 cells; test: CCK-8 anti-proliferation, NCI-N87, Compound 31 with docetaxel; type: cell-based; conditions: Homo sapiens; NCI-N87, 72 hours, Compound 31 alone
Procedure: Briefly, NCI-N87 cells were seeded in 96-well plates and treated with different Compound 31 at different concentrations for 72 hours. […] Each concentration was prepared in triplicates. At the end of treatment, CCK-8 agents (10 μL/well) were added to the 96-well plate, and incubated with the cells for 2 hours. The OD450 value was measured using a microplate reader.

[24] = mean ± SEM, Compound 15 50 mg/kg i.v. BIW, Irinotecan 10 mg/kg i.p. Q4D, Paclitaxel 10 mg/kg i.v. Q4D

In the case of `Cc1c(S(C)(=O)=O)c(-c2cc(F)cc(N3CCN(c4ccc(NS(=O)(=O)c5ccc(N[C@H](CCN6CCC(C(=O)OCCP(=O)(O)O)CC6)CSc6ccccc6)c(S(=O)(=O)C(F)(F)F)c5)cc4)CC3)c2)c(-c2ccc(Cl)cc2)n1C(C)C` [Compound 15, (R)-2-(1-(3-(4-(N-(4-(4-(3-(2-(4-chlorophenyl)-1-isopropyl-5-methyl-4-(methylsulfonyl)-1H-pyrrol-3-yl)-5-fluorophenyl)piperazin-1-yl)phenyl)sulfamoyl)-2-(trifluoromethylsulfonyl)phenylamino)-4-(phenylthio)butyl)piperidine-4-carbonyloxy)ethylphosphonic acid], the “T/C (%) @ day 21” value ([1]; doses as Table 3) is reported as 136.8%, the “RTV @day 21” value [1, 24] is reported as 9.75 ± 3.77 and the IC50 ([2]; Homo sapiens, MDA-MB-231, 72 h, read-out: IC50 (A alone), MDA-MB-231, 72 hours) is reported as 2600 nM. For the same molecule, the IC50 ([2]; read-out: IC50 (A alone), MDA-MB-231, 72 hours) was 4550 nM, the “mouse tumor volume upon the end point” value ([3]; Compound 15 50 mg/kg qd 10 days, 5-FU 25 mg/kg once a week for two weeks) was 1600 mm^3 and the mouse body weight ([3]; mouse, in vivo) was “rebounded after a brief weight loss”. For the same molecule, the “patients with partial response (PR)” value ([4]; 36 patients with post-baseline tumor measurements) was 3, the MTD/RP2D ([4]; QW) was 240 mg and the “duration of PR” value ([4]; SCLC patient #002-001, 40 mg BIW) was 19 cycles. For the same molecule, the accumulation ([4]; human, in vivo) was “No significant accumulation”, the “time to resolution of platelet drop / thrombocytopenia” value ([4]; human, in vivo) was 2 to 6 days and the “TRAE: alanine aminotransferase increased” value ([4]; human, in vivo, 28 day) was 7.1%. The “TRAE: aspartate aminotransferase increased” value ([4]; human, in vivo, 28 day) was 9.5%, the “TRAE: platelet count decreased” value ([4]; human, in vivo, 28 day) was 14.3% and the “patients with ≥G3 treatment emergent adverse events (TRAEs)” value ([4]; human, in vivo, 28 day) was 26.2%. For the same molecule, the “Cmax and AUC versus dose” value ([4]; human, in vivo, iv) was “approximately dose proportional”, the IC50 [5] was 4.4 nM and the “T/C (%)” value [6] was 84.4%. The “T/C (%) @ day 21” value ([7]; doses as Table 3) was 125.4%, the “RTV @day 21” value [7, 24] was 17.05 ± 6.59 and the IC50 [8] was 1.6 nM. The “T/C (%)” value [9] was 60.6%, the platelet toxicity reduced [10] was 10-30 times and the “RTV @day 21” value ([11]; Compound 15 20 mg/kg i.v. BIW, Irinotecan 5 mg/kg i.p. QW, Paclitaxel 10 mg/kg i.v. QW, Cisplatin 1 mg/kg i.p. Q4D) was 2.0 ± 0.3. For the same molecule, the mRECIST_best ([11]; progressive disease) was 1/5 PD, the mRECIST_best ([11]; stable disease) was 4/5 SD, and the “T/C (%) @ day 21” value ([11]; doses as Table 6) was 70.0%. The mRECIST_last ([11]; progressive disease) was 4/5 PD, the mRECIST_last ([11]; stable disease) was 1/5 SD, and the “activity relative to the first generation BCL-2 inhibitor” value [12] was “about 10 times”. The “binding to Mcl-1” value [13] was “binds weakly”, the IC50 [14] was 9.3 nM and the “patients with partial remission (PR)” value ([15]; 19 evaluated SCLC patients, US patient, dose of 40 mg) was 1. The “grade 3/4 AE: decreased lymphocyte count” value ([15]; 44 patients) was 6.8%, the “grade 3/4 AE: elevated lipase” value ([15]; 44 patients) was 6.8% and the “grade 3/4 AE: hyponatremia” value ([15]; 44 patients) was 11.4%. For the same molecule, the tolerability ([15]; 44 patients, 7 dose levels, i.v. twice weekly or weekly) was “well tolerated at all tested dose levels”, the “cases of stable disease in other tumor types” value ([15]; Australian studies, e.g. CRC) was 5 and the “AUC and Cmax on day 1 versus dose” value ([15]; dose range of 10-160 mg) was “increased proportionally with dose”. The MTD ([15]; pooled analysis) was “had not been reached”, the “mouse tumor volume upon the end point” value ([16]; 25 mg/kg) was 700 mm^3 and the “mouse tumor volume upon the end point” value ([16]; 50 mg/kg) was 800 mm^3. For the same molecule, the “percentage of Ki67-positive cells” value ([16]; 100 mg/kg group) was “significantly lower than other groups”, the “mouse tumor volume upon the end point” value ([16]; 100 mg/kg) was “about 400 mm^3” and the “cleaved-caspase3 and PARP-1 cleavage bands in the tumor tissue” value ([16]; 25, 50, 100 mg/kg) was “gradually increased as the dose increased”. The mouse body weight ([16]; among the four groups) was “no significant difference in body weight” and the “weight and size of the xenograft tumors” value ([16]; as the dosing concentration increased) was “showed an evident trend of reduction”.
For `Cc1c(S(C)(=O)=O)c(-c2cc(F)cc(N3CCN(c4ccc(NS(=O)(=O)c5ccc(N[C@H](CCN6CCC(C(=O)O)CC6)CSc6ccccc6)c(S(=O)(=O)C(F)(F)F)c5)cc4)CC3)c2)c(-c2ccc(Cl)cc2)n1C(C)C` [Compound 31, (R)-1-(3-(4-(N-(4-(4-(3-(2-(4-chlorophenyl)-1-isopropyl-5-methyl-4-(methylsulfonyl)-1H-pyrrol-3-yl)-5-fluorophenyl)piperazin-1-yl)phenyl)sulfamoyl)-2-(trifluoromethylsulfonyl)phenylamino)-4-(phenylthio)butyl)piperidine-4-carboxylic acid], the “inhibition of proliferation as a single agent” value [17] was “can inhibit proliferation of small cell lung cancer cells”, the apoptosis rate [18] was “approximately 22%” and the apoptosis rate [19] was 24%. The “effect on cell cycle” value [20] was “no significant effect on cell cycle”, the IC50 [21] was 1150 ± 560 nM and the IC50 [22] was 901 ± 230 nM. The IC50 [23] was 405 nM.
